Assay results as given in patent publication US10011629B2, “Nucleoside analogs for treatment of the flaviviridae family of viruses and cancer” (Cocrystal Pharma, Inc., priority 2015, dated 2018).

Assays:
[1] = target: HCV NS5B RNA polymerase GT 3a WT; experiment: NS5B enzyme assay, GT 3a WT; format: biochemical; conditions: NS5B enzyme GT 3a WT; average of two to three replicates ± SD
Description: The 21-amino-acid C-terminal truncated HCV NS5B RNA polymerase can be cloned from the HCV replicon cells, modified with a six-His-terminal tail, expressed in a prokaryotic expression vector (pQE60; Qiagen), and subsequently purified over a Talon cobalt affinity resin column (Clontech, Palo Alto, Calif.).^1 Purification can be monitored by SDS-PAGE and Western blotting. The resulting purified protein can be dialyzed overnight against 50 mM sodium phosphate (pH 8.0)-300 mM sodium chloride-0.5% Triton X-100-50% glycerol-2 mM dithiothreitol. The dialysate maintains consistent activity for more than 6 months when stored at −20° C. Protein can be quantified with the Coomassie Plus protein assay reagent (Pierce) by using a bovine serum albumin standard from the same supplier.
NS5B RNA polymerase reaction can be studied by monitoring the incorporation of ^32P-labeled UMP into the newly synthesized RNA strand by using minus IRES as the template. […] After the membrane is rinsed with water followed by rinsing with ethanol, the dots can be cut out and the radioactivity counted in a Packard liquid scintillation counter. The amount of product can be calculated on the basis of the total radioactivity in the reaction mixture. The rate of the reaction can be determined from the slope of the time course of product formation. […]

[2] = target: T1, HCV NS5B RNA polymerase GT 3a L159F (Hepatitis C virus genotype 3a, UniProt Q81258, L2589F); experiment: NS5B enzyme assay, GT 3a L159F; format: biochemical; conditions: NS5B enzyme GT 3a L159F; average of two to three replicates ± SD
T1 construct: The 21-amino-acid C-terminal truncated HCV NS5B RNA polymerase; His6; made in house
T1 sequence (Q81258 2431-3000 L2589F): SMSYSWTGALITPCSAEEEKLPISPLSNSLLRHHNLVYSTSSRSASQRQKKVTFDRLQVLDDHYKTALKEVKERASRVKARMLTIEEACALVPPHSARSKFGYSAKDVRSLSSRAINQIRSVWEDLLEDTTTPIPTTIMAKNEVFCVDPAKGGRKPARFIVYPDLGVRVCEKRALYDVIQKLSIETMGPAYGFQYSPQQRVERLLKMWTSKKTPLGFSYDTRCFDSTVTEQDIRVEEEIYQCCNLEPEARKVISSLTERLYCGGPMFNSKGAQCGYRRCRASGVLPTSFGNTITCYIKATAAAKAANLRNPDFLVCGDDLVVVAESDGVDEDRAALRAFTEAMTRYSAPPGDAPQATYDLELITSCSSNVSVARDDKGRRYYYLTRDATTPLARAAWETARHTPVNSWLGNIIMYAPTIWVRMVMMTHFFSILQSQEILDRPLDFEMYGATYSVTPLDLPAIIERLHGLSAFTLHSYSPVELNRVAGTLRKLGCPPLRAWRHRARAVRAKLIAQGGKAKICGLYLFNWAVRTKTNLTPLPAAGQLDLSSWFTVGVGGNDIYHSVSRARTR
Description: The 21-amino-acid C-terminal truncated HCV NS5B RNA polymerase can be cloned from the HCV replicon cells, modified with a six-His-terminal tail, expressed in a prokaryotic expression vector (pQE60; Qiagen), and subsequently purified over a Talon cobalt affinity resin column (Clontech, Palo Alto, Calif.).^1 Purification can be monitored by SDS-PAGE and Western blotting. The resulting purified protein can be dialyzed overnight against 50 mM sodium phosphate (pH 8.0)-300 mM sodium chloride-0.5% Triton X-100-50% glycerol-2 mM dithiothreitol. […] Protein can be quantified with the Coomassie Plus protein assay reagent (Pierce) by using a bovine serum albumin standard from the same supplier.

[3] = target: human mitochondrial RNA polymerase (POLRMT) (Homo sapiens, UniProt O00411); experiment: In vitro human mitochondrial RNA polymerase (POLRMT) incorporation assay; conditions: 100 μM rNTP, 2 hr, normalized to natural rNTP
Chain of human mitochondrial RNA polymerase (POLRMT) (O00411 42-1230): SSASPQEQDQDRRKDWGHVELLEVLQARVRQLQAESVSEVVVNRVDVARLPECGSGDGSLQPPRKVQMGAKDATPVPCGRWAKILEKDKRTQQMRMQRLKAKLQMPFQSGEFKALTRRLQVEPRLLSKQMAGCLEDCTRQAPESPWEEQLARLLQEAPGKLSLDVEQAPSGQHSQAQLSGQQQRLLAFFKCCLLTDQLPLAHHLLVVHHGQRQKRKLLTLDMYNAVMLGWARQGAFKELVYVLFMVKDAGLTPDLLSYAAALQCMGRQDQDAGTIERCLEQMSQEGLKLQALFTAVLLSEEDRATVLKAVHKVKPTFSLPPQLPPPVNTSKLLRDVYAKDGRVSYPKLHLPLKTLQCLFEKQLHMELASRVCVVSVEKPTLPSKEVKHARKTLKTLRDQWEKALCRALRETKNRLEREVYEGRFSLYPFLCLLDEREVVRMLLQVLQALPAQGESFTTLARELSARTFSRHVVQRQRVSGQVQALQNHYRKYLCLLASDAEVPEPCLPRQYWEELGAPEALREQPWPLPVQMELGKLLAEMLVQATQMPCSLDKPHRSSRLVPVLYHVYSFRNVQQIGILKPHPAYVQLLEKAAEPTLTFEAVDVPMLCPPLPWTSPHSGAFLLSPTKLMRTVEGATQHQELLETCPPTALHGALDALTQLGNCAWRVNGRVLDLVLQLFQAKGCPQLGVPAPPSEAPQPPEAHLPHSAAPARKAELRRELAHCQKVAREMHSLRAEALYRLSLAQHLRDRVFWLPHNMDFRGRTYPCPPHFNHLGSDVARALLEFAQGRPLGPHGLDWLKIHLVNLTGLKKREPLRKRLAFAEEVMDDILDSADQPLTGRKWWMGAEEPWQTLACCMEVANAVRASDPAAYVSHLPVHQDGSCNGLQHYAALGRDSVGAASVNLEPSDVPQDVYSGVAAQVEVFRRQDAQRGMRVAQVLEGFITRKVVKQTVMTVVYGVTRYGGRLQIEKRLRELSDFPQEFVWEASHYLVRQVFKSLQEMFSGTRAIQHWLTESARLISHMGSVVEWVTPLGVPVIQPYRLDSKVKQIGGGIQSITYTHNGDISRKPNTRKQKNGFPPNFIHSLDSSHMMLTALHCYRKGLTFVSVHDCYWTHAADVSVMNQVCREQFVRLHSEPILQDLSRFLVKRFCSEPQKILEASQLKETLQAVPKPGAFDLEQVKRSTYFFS
Description: 125 nM of POLRMT was incubated with 500 nM of 5′-radiolabled RNA/DNA hybrid, 10 mM MgCl2 and 100 μM of the corresponding nucleoside triphosphate. For non-nucleoside analogs, 100 μM of inhibitor was added at the same time as 100 μM UTP. Incorporation was allowed to proceed for 2 h at 30° C. and reactions were stopped by the addition of 10 mM EDTA and formamide. Samples were visualized on 20% denaturing polyacrylamide gel. Data were analyzed by normalizing the product fraction for each nucleoside triphosphate analog to that of the corresponding natural nucleoside triphosphate.
100 μM of each rNTP was incubated with POLRMT enzyme and the appropriate DNA/RNA primer/template hybrid and incorporation was evaluated at 2 hr. Nucleoside triphosphate analog incorporation was normalized to that of natural rNTP substrates.

**Q.** For `C[C@@]1(F)[C@H](O)[C@@H](COP(=O)(O)OP(=O)(O)OP(=O)(O)O)O[C@H]1n1ccc(=O)[nH]c1=O` [2′-Me-2′-F-UTP], which EC50 [1] is on record?
**A.** The EC50 was 7.2 ± 2.1 µM.

**Q.** What about the EC50 [2] of the same compound?
**A.** Its EC50 is 5.2 ± 1.4 µM.

**Q.** And the “incorporation by POLRMT as compared to natural UTP” value [3]?
**A.** The value was 3.1%.
